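Each compound was tested at five concentrations against cells in 96-well plates for 48 hours. The concentration for full growth arrest is given as TGI.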
What was measured:
Assay in all cases: growth of human tumour cells (NCI), 48 h
HS 578T breast = tested on: HS 578T breast
NCI-H226 lung = tested on: NCI-H226 lung
HOP-62 NSCLC = tested on: HOP-62 NSCLC
PC-3 prostate = tested on: PC-3 prostate
OVCAR-5 ovarian = tested on: OVCAR-5 ovarian
NCI-H460 lung = tested on: NCI-H460 lung
LOX IMVI melanoma = tested on: LOX IMVI melanoma
SK-MEL-2 melanoma = tested on: SK-MEL-2 melanoma
RXF 393 renal = tested on: RXF 393 renal
BT-549 breast = tested on: BT-549 breast
IGROV1 ovarian = tested on: IGROV1 ovarian
MDA-N = tested on: MDA-N
MDA-MB-435 = tested on: MDA-MB-435
SK-MEL-28 melanoma = tested on: SK-MEL-28 melanoma
COLO 205 colon = tested on: COLO 205 colon
KM12 colon = tested on: KM12 colon

Row | SMILES | TGI (HS 578T breast) [µM] | TGI (NCI-H226 lung) [µM] | TGI (HOP-62 NSCLC) [µM] | TGI (PC-3 prostate) [µM] | TGI (OVCAR-5 ovarian) [µM] | TGI (NCI-H460 lung) [µM] | TGI (LOX IMVI melanoma) [µM] | TGI (SK-MEL-2 melanoma) [µM] | TGI (RXF 393 renal) [µM] | TGI (BT-549 breast) [µM] | TGI (IGROV1 ovarian) [µM] | TGI (MDA-N) [µM] | TGI (MDA-MB-435) [µM] | TGI (SK-MEL-28 melanoma) [µM] | TGI (COLO 205 colon) [µM] | TGI (KM12 colon) [µM]
1 | COC1/C=C/C(C)C(C(C)C(OC)C(C)CCC(=O)C(C)C(C/C=C/N(C)C=O)OC)OC(=O)C=CC2OC2(C)CC(OC)C(OC)C2=CC(=O)O[C@@H](C(C)C(OC)CC(OC)/C=C/C(C)C(O)C1)[C@H]2O (some centres not stated) | 0.0351 | 0.0164 | 0.0227 | 0.0297 | 0.0464 | > 0.351 | 0.00617 | 0.0446 | 0.0473 | 0.0907 | 0.00369 | 0.103 | > 1.24 | – | – | –
2 | CCOC(=O)C1=NOC2(C=C(Br)C(=O)C(Br)=C2)C1 | 68.1 | 52.9 | 16.2 | 5.31 | 12.6 | 15 | 7.63 | 15 | 3.54 | 17.8 | 20.6 | 3.39 | 3.49 | 24.7 | 2.7 | 29.7
3 | C[C@]12CC[C@@H]3c4cc(OCC(F)(F)F)c(O)cc4CC[C@H]3[C@@H]1CC[C@@H]2O | 23 | 24.7 | 26.7 | 13.8 | 37.7 | 15.5 | 17.1 | 18.5 | 8.68 | 89.6 | 23.8 | 1.29 | 1.1 | 26.2 | 28.2 | 12.7
4 | O=C(c1ccccc1)c1ccc2nc(-c3c(Cl)c(Cl)c(Cl)c(Cl)c3C(=O)N/N=C/c3ccc(Cl)cc3)[nH]c2c1 | > 100 | > 100 | > 100 | > 100 | > 100 | – | > 100 | 72.4 | 85.9 | > 100 | > 100 | > 100 | > 100 | > 100 | > 100 | > 100
5 | CN(C)c1ccc(C(Cc2ccccc2)C2NC(=S)NC2=O)cc1 (configuration not stated) | > 100 | > 100 | > 100 | > 100 | > 100 | > 100 | > 100 | > 100 | > 100 | > 100 | > 100 | > 100 | > 100 | > 100 | > 100 | > 100
6 | CCC(CCCN)Nc1cc(OC)cc2c(C)ccnc12 (configuration not stated) | 27.6 | 28.3 | 29.2 | 26.2 | 32.5 | 32.3 | 31.6 | 41.5 | 27 | 28.5 | 36.6 | 34.1 | 28 | 30.6 | 47.5 | 29
7 | NC(N)=NCC[C@H](NC(=O)OCCCCCn1ccc(=O)[nH]c1=O)C(=O)O | > 100 | > 100 | > 100 | > 100 | > 100 | > 100 | > 100 | > 100 | > 100 | > 100 | – | > 100 | > 100 | > 100 | > 100 | > 100
8 | Nc1n[n+](CC(=O)c2ccccc2)c2sc(-c3ccccc3)nn12 | > 100 | > 100 | > 100 | > 100 | > 100 | > 100 | > 100 | > 100 | > 100 | > 100 | > 100 | > 100 | > 100 | > 100 | > 100 | > 100
9 | COc1cc(/C=C/c2nc(NC(=S)Nc3ccccc3)nnc2C)cc(OC)c1OC | > 100 | 81.4 | > 100 | > 100 | > 100 | 36.8 | > 100 | 38.1 | 66.8 | 89 | 93.7 | > 100 | > 100 | > 100 | 32.2 | 27.6
10 | CC1=NN(C(=O)c2ccncc2)C(=O)C1 | > 100 | > 100 | > 100 | > 100 | > 100 | > 100 | > 100 | > 100 | > 100 | > 100 | > 100 | > 100 | > 100 | > 100 | > 100 | > 100
11 | CCN1C(=O)c2cc(OC)c(OC)cc2C(=O)C12OC(=O)c1cc3c(cc12)OCO3 (configuration not stated) | > 100 | > 100 | > 100 | > 100 | > 100 | > 100 | > 100 | 49.9 | 72.9 | > 100 | > 100 | > 100 | > 100 | > 100 | > 100 | > 100
12 | CC1(/C=C/CCSc2ccccc2)CC(=O)C2CC1C2(C)C (configuration not stated) | > 100 | > 100 | > 100 | > 100 | > 100 | 71.6 | 43.9 | > 55.9 | > 100 | 42.1 | 53.5 | > 100 | > 87.6 | > 100 | 70.6 | 54.4
13 | COC(=O)[C@@H]1[C@H](OC(C)=O)CCC2[C@@]3(C[C@@H](c4ccoc4)O[C@@H]3OC)[C@H](C)CC[C@]21C(=O)OC (some centres not stated) | > 25 | > 25 | – | > 25 | > 25 | > 25 | > 25 | > 25 | > 25 | > 25 | > 25 | > 25 | > 25 | – | > 25 | > 25
14 | O=C1OCC2OC(=O)c3cc(O)c(O)c(O)c3-c3c(O)c(O)c(O)c4c3C(=O)OC(C2OC(=O)c2cc(O)c(O)c(O)c2-c2c1cc(O)c(O)c2O)C1OC(=O)c2c-4c(O)c(O)c(O)c2[C@@H]1C(O)C(O)C(O)C(O)CO (some centres not stated) | 70.3 | 42.6 | 34 | 42.7 | 33 | 39.5 | 6.04 | 48.3 | 34.3 | 55.2 | 40.6 | 25.5 | 21.9 | > 100 | 30.4 | 52.3
15 | Cn1c(=O)c2c(nc3n2CC(=O)N3CCCCl)n(C)c1=O | > 100 | > 100 | > 100 | > 100 | > 100 | > 100 | > 100 | > 100 | – | > 100 | > 100 | > 100 | > 100 | > 100 | > 100 | > 100
16 | CS(=O)(=O)OCC1CN(S(C)(=O)=O)c2cc(O)ccc21 (configuration not stated) | > 100 | 12.3 | 7.01 | 5.62 | 18.3 | 10.5 | 13.3 | 6.88 | 3.47 | 8.85 | 22.4 | 4.52 | 4.07 | 11.6 | 5.95 | 13
17 | O=C(O)C12C3CCC(CC3)C1(C(=O)O)C1CCC2C1 (configuration not stated) | > 100 | > 100 | > 100 | > 100 | > 100 | > 100 | > 100 | > 100 | > 100 | > 100 | > 100 | > 100 | > 100 | > 100 | > 100 | > 100
18 | O=c1[nH]cc(-c2c[nH]c3ccccc23)nc1-c1c[nH]c2ccccc12 | 39.9 | – | 27.3 | 51.1 | 27.6 | 43.4 | 27.5 | 34.2 | 10.3 | 28.7 | 14.6 | 9.44 | 14 | 31.7 | 23.2 | > 100
19 | C=CCN1C(=O)/C(=C/c2cccs2)N=C1SC/C=C/C | > 100 | > 100 | > 100 | > 100 | > 100 | > 100 | > 100 | 65.8 | 85.2 | > 100 | > 100 | > 100 | > 100 | > 100 | 88.9 | > 100
20 | Cc1ccc(NC(Nc2ccc(C)cc2C)=C(/C=C(\Cl)[N+](=O)[O-])[N+](=O)[O-])c(C)c1 | 17 | 22.1 | 34.1 | 17.2 | 19.7 | 36.7 | 3.25 | 16.9 | 3.75 | 11.7 | 20.9 | 10.9 | 7.98 | 4.77 | 4.99 | 26.7
21 | COC(=O)[C@H](CCSC)NC(=O)N[C@H](C)c1ccccc1 | > 100 | > 100 | > 100 | > 100 | > 100 | > 100 | > 100 | > 100 | – | > 100 | > 100 | > 100 | > 100 | > 100 | > 100 | > 100
22 | O=C1CCCN1C(=O)CS(=O)(=O)c1ccccc1 | > 100 | > 100 | > 100 | > 100 | > 100 | > 100 | > 100 | > 100 | > 100 | > 100 | > 100 | > 100 | > 100 | > 100 | > 100 | > 100
23 | COc1ccc(C(=O)/C=C/c2ccc(O)c(O)c2)c(OC)c1 | > 100 | 22.3 | 60.3 | 26.4 | 47.2 | 15.9 | 26.4 | 9.82 | 39.2 | 20.4 | > 100 | > 46.2 | > 48.5 | 48.4 | 28.8 | 15
24 | CC(=O)C1C(=O)C(=O)N(c2cccc([N+](=O)[O-])c2)C1=O (configuration not stated) | > 100 | > 100 | > 100 | > 100 | > 100 | > 100 | > 100 | > 100 | > 100 | > 100 | > 100 | > 100 | > 100 | > 100 | > 100 | > 100
25 | O=[N+]([O-])c1nccn1CCCNc1ccnc2cc(Cl)ccc12 | > 100 | 10.8 | > 92.4 | > 100 | > 100 | > 12 | > 100 | > 95.7 | > 23 | > 100 | > 100 | > 100 | > 100 | > 100 | > 100 | > 26.6
26 | COc1c(Br)cc2c(c1OC)C(Br)CCC(Br)(Br)C2=O (configuration not stated) | > 71.7 | 5.84 | 4.81 | 4.03 | 13.6 | 8.92 | 1.58 | 4.4 | 1.82 | 1.37 | 5.76 | 0.684 | 3.62 | 8.88 | 4.1 | 14.6
27 | Cc1cc(C)c(-n2[nH]c(=O)n(C)c2=O)c(C)c1 | > 100 | > 100 | – | > 100 | > 100 | > 100 | > 100 | > 100 | > 100 | > 100 | > 100 | > 100 | > 100 | > 100 | > 100 | > 100
28 | Oc1ccc(-c2cc(-c3cc(-c4ccc(O)cc4)no3)on2)cc1 | > 100 | > 100 | > 100 | > 100 | > 100 | > 100 | > 100 | > 100 | > 100 | > 100 | > 100 | > 100 | > 100 | > 100 | > 100 | > 100
29 | C=CCC1(OCc2ccccc2)C(=O)C(=O)OC1C1COC(C)(C)O1 (configuration not stated) | > 100 | > 100 | > 100 | > 100 | > 100 | > 100 | > 100 | > 100 | > 100 | > 100 | – | > 100 | > 100 | > 100 | > 100 | > 100
